Converted amounts (≈) assume the structure as drawn.
How the values were obtained:
Assay type in all cases: cell-based
[1] = system: Mucor circinelloides 1463(62) (ATCC 26759); experiment: Fungal MIC Protocol, Mucor circinelloides (MIC-50); settings: Mucor circinelloides, ATCC26759; 50% growth inhibition at 48 hours; read-out: MIC-50 Mucorales circinelloides 26579
Description: (§1) Fungal MIC Protocol: RPMI/MOPS media (Roswell Park Memorial Institute/3-morpholinopropane-1-sulfonic acid media) is prepared by dissolving 8.4 grams RPMI […] (Sigma cat #R1383), 34.52 grams MOPS buffer (Sigma cat #M3.183) and 2 […] glucose in 900 mL deionized water. The pH is adjusted to 7.0 with NaOH and filter sterilized. 0.1 mL, of a stock spore suspension (or loop from frozen stock) is inoculated to a 75 mL tissue culture flask (Falcon cat #353136) containing 50 mL of Potato Dextrose Agar (PDA, 24 grams PD broth (Fisher cat #DF 0549179), 20 grams agar (Fisher cat #BP 1423500) per liter water). Aspergillus and Fusarium strains are grown at 35° C. and Mucor strains are grown at room temperature for 3-5 days. Spores are harvested by flooding the flask with 5 mL phosphate buffered saline (PBS) pH 7.4+0.1% Tween-20 and several glass beads (Fisher cat #S800243) are added to aid in agitation. The supernatant is removed and the OD530 of a 1:100 dilution is measured. Spores are diluted in RPMI/MOPS to a final OD530 of 0.002 for Aspergillus and an OD530 of 0.005 for Fusarium and Mucor. The final concentration of spores is approximately 2×10^4 cfu/mL. Test compound(s) are diluted to 200 ug/mL in RPMI/MOPS ([…]). Ten (10) serial dilutions are prepared with RPMI/MOPS in a 96-well round bottom plate (Fisher cat #353136). For Mucor strains a sterile flat-bottom 96-well plate is used. 50 μl of compound dilutions in duplicate are added to a sterile 96-well round bottom plate. 50 ul of diluted spores are added to the compound-containing plates. Control wells include 1) compound but no cells and 2) spores but no compound. Mix the plates gently by hand, place in ziplock bags and
(§2) incubate at 35° C. for 48 hours. Score the MIC visually (lowest concentration of compound showing >50% growth inhibition) using an inverted mirror.

Candida albicans GDH2346 = experiment: Candida Minimal Inhibitory Concentration (MIC); settings: Candida albicans, GDH2346; 50% growth inhibition at 48 hours; read-out: MIC-50 Candida albicans GDH2346
Description: Candida Minimal Inhibitory Concentration (MIC): RPMI/MOPS media is prepared by dissolving 8.4 g RPMI 1640, 34.52 g MOPS buffer and 2 g glucose in 900 mL water. The pH is adjusted to 7.0 with NaOH. The total volume is brought to 1 L and the resulting solution is filter sterilized. The Candida stock is streaked on a Yeast extract Peptone Dextrose (YPD) agar plate and grown at 35° C. for isolation of single colonies. Compounds of the disclosure are diluted to 200 μg/mL in RPMI/MOPS (4.8 ul of 10 mg/mL DMSO stock in 240 ul media). Ten (10) 1:2 serial dilutions are prepared in RPMI/MOPS in a 96-well round bottom plate. Fifty (50) μl of compound dilutions are transferred in duplicate to a sterile tissue culture-treated 96-well flat-bottom, black-sided polypropylene plate. A single colony of Candida from the YPD plate is re-suspended in 5 mL phosphate buffered saline (BS) and optical density (OD) at 600 nm is measured. The suspension is adjusted to OD=1.0 and a 1:1000 dilution is prepared in RPMI/MOPS. Fifty (50) ul aliquots of the diluted yeast are added to the plates containing 50 μL of compound to all wells except 12E-H. Control wells include: 12 A-D cells, no compound and 12 E-H no cells, no compound. The plates are mixed gently by hand and placed in Ziplok bags in a 35° C. incubator. The OD600 is measured at 24 and 48 hours.

[2] = system: Fusarium solani (ATCC 58877); experiment: Fungal MIC Protocol, Fusarium solani; settings: Fusarium solani, ATCC58877; 100% growth inhibition at 48 hours; read-out: MIC Fusarium solani 58877
Description: as §1
(§3) incubate at 35° C. for 48 hours. […]

[3] = system: Aspergillus flavus AFL1 (ATCC MYA-3631); experiment: Fungal MIC Protocol, Aspergillus flavus; settings: Aspergillus flavus; 100% growth inhibition at 48 hours; read-out: MIC Aspergillus flavus 3631
Description: as §1, §3

[4] = system: Aspergillus fumigatus T33439 (ATCC MYA-3626); experiment: Fungal MIC Protocol, Aspergillus fumigatus; settings: Aspergillus fumigatus; 100% growth inhibition at 48 hours; read-out: MIC Aspergillus fumigatus 3626
Description: as §1, §3

[5] = system: Mucor ramosissimus 057718 (ATCC 90286); experiment: Fungal MIC Protocol, Mucor ramosissimus (MIC-50); settings: Mucor ramosissimus, ATCC90286; 50% growth inhibition at 48 hours; read-out: MIC-50 Mucorales ramosissimus 90286
Description: as §1, §2

[6] = system: Fusarium falciforme FS1 (ATCC MYA-3636); experiment: Fungal MIC Protocol, Fusarium falciforme; settings: Fusarium falciforme; 100% growth inhibition at 48 hours; read-out: MIC Fusarium falciforme 3636
Description: as §1, §3

MIC50 [1] [µg/mL] | MIC50 (Candida albicans GDH2346) [µg/mL] | MIC [2] [µg/mL] | MIC [3] [µg/mL] | MIC [4] [µg/mL] | MIC50 [5] [µg/mL] | MIC [6] [µg/mL] | SMILES
0.2 (≈ 0.415 µM) | < 0.2 | 0.78 (≈ 1.62 µM) | 0.1 (≈ 0.208 µM) | < 0.05 | 0.78 (≈ 1.62 µM) | < 0.05 | Cn1c(-c2ccc(C3=CCN(C(=N)N)CC3)cc2)nnc1-c1ccc(C2=CCN(C(=N)N)CC2)cc1 [Example 1, 4,4-(4,4-(4-Methyl-4H-1,2,4-triazole-3,5-diyl)bis(4,1-phenylene))bis(5,6-dihydropyridine-1(2H)-carboximidamide)]
> 100 | < 0.024 | < 0.1 | < 0.1 | 0.2 (≈ 0.404 µM) | > 100 | < 0.1 | CCn1c(-c2ccc(C3=CCN(C(=N)N)CC3)cc2)nnc1-c1ccc(C2=CCN(C(=N)N)CC2)cc1 [Example 2, 4,4′-(4,4′-(4-Ethyl-4H-1,2,4-triazole-3,5-diyl)bis(4,1-phenylene)) bis(5,6-dihydropyridine-1(2H)-carboximidamide)]
0.78 (≈ 1.35 µM) | 3.13 (≈ 5.44 µM) | 0.39 (≈ 0.677 µM) | 0.78 (≈ 1.35 µM) | < 0.1 | 1.56 (≈ 2.71 µM) | < 0.1 | N=C(N)N1CC=C(c2ccc(-c3nnc(-c4ccc(C5=CCN(C(=N)N)CC5)cc4F)n3Cc3ccccc3)cc2)CC1 [Example 7, 4-(4-(4-Benzyl-5-(4-(1-carbamimidoyl-1,2,3,6-tetrahydropyridin-4-yl)-2-fluorophenyl)-4H-1,2,4-triazol-3-yl)phenyl)-5,6-dihydropyridine-1(2H)-carboximidamide]
0.2 (≈ 0.386 µM) | 0.1 (≈ 0.193 µM) | 0.05 (≈ 0.0966 µM) | 0.05 (≈ 0.0966 µM) | 0.05 (≈ 0.0966 µM) | 0.39 (≈ 0.753 µM) | 0.006 (≈ 0.0116 µM) | Cn1c(-c2ccc(C3=CCN(C(=N)N)CC3)cc2F)nnc1-c1ccc(C2=CCN(C(=N)N)CC2)cc1F [Example 8, 4,4′-(4,4′-(4-Methyl-4H-1,2,4-triazole-3,5-diyl)bis(3-fluoro-4,1-phenylene)) bis(5,6-dihydropyridine-1(2H)-carboximidamide)]
0.78 (≈ 1.47 µM) | < 0.1 | < 0.1 | < 0.1 | < 0.1 | 1.56 (≈ 2.93 µM) | < 0.1 | CCn1c(-c2ccc(C3=CCN(C(=N)N)CC3)cc2F)nnc1-c1ccc(C2=CCN(C(=N)N)CC2)cc1F [Example 10, 4,4′-(4,4′-(4-Ethyl-4H-1,2,4-triazole-3,5-diyl)bis(3-fluoro-4,1-phenylene)) bis(5,6-dihydropyridine-1(2H)-carboximidamide)]
< 0.1 | 0.39 (≈ 0.697 µM) | 6.25 (≈ 11.2 µM) | < 0.1 | < 0.1 | 1.56 (≈ 2.79 µM) | < 0.1 | CC(C)Cn1c(-c2ccc(C3=CCN(C(=N)N)CC3)cc2F)nnc1-c1ccc(C2=CCN(C(=N)N)CC2)cc1F [Example 14]

Continued, compound first:

SMILES | MIC50 [1] [µg/mL] | MIC50 (Candida albicans GDH2346) [µg/mL] | MIC [2] [µg/mL] | MIC [3] [µg/mL] | MIC [4] [µg/mL] | MIC50 [5] [µg/mL] | MIC [6] [µg/mL]
CC(C)n1c(-c2ccc(C3=CCN(C(=N)N)CC3)cc2)nnc1-c1ccc(C2=CCN(C(=N)N)CC2)cc1 [Example 3, 4,4′-(4,4′-(4-isopropyl-4H-1,2,4-triazole-3,5-diyl)bis(4,1-phenylene))bis(5,6-dihydropyridine-1 (2H)-carboximidamide)] | 0.39 (≈ 0.765 µM) | 0.1 (≈ 0.196 µM) | < 0.1 | < 0.1 | < 0.1 | 0.78 (≈ 1.53 µM) | < 0.1
N=C(N)N1CC=C(c2ccc(-c3nnc(-c4ccc(C5=CCN(C(=N)N)CC5)cc4)n3C3CCC3)cc2)CC1 [Example 6, 4,4′-(4,4′-(4-Cyclobutyl-4H-1,2,4-triazole-3,5-diyl)bis(4,1-phenylene))bis(5,6-dihydropyridine-1(2H)-carboximidamide)] | 0.78 (≈ 1.5 µM) | 3.13 (≈ 6 µM) | 0.39 (≈ 0.748 µM) | 0.39 (≈ 0.748 µM) | 0.2 (≈ 0.383 µM) | 1.56 (≈ 2.99 µM) | < 0.1
CCOCCOCCn1c(-c2ccc(C3=CCN(C(=N)N)CC3)cc2F)nnc1-c1ccc(C2=CCN(C(=N)N)CC2)cc1F [Example 9, 4,4′-(4,4′-(4-(2-(2-Ethoxyethoxy)ethyl)-4H-1,2,4-triazole-3,5-diyl)bis(3-fluoro-4,1-phenylene))bis(5,6-dihydropyridine-1(2H)-carboximidamide)] | 3.13 (≈ 5.05 µM) | < 0.1 | 0.2 (≈ 0.323 µM) | 0.39 (≈ 0.629 µM) | 0.2 (≈ 0.323 µM) | 3.13 (≈ 5.05 µM) | 0.2 (≈ 0.323 µM)
CCCCCCCCn1c(-c2ccc(C3=CCN(C(=N)N)CC3)cc2F)nnc1-c1ccc(C2=CCN(C(=N)N)CC2)cc1F [Example 11, 4,4′-(4,4′-(4-Octyl-4H-1,2,4-triazole-3,5-diyl)bis(3-fluoro-4,1-phenylene))bis(5,6-dihydropyridine-1(2H)-carboximidamide)] | 1.56 (≈ 2.53 µM) | 1.56 (≈ 2.53 µM) | 0.2 (≈ 0.325 µM) | 0.78 (≈ 1.27 µM) | 0.39 (≈ 0.633 µM) | 3.13 (≈ 5.08 µM) | 0.2 (≈ 0.325 µM)
N=C(N)N1CC=C(c2ccc(-c3nnc(-c4ccc(C5=CCN(C(=N)N)CC5)cc4F)n3C3CCN(C(=N)N)CC3)c(F)c2)CC1 [Example 12, 4,4′-(4,4′-(4-(1-Carbamimidoylpiperidin-4-yl)-4H-1,2,4-triazole-3,5-diyl)bis (3-fluoro-4,1-phenylene))bis(5,6-dihydropyridine-1(2H)-carboximidamide)] | > 100 | 12.5 (≈ 19.9 µM) | < 0.1 | 3.13 (≈ 4.98 µM) | 3.13 (≈ 4.98 µM) | > 100 | 0.39 (≈ 0.62 µM)
CC(C)n1c(-c2ccc(C3=CCN(C(=N)N)CC3)cc2F)nnc1-c1ccc(C2=CCN(C(=N)N)CC2)cc1F [Example 13, 4,4-(4,4-(4-Isopropyl-4H-1,2,4-triazole-3,5-diyl)bis(3-fluoro-4,1-phenylene))bis(5,6-dihydropyridine-1(2H)-carboximidamide)] | 0.39 (≈ 0.715 µM) | 0.2 (≈ 0.367 µM) | 6.25 (≈ 11.5 µM) | 0.2 (≈ 0.367 µM) | < 0.1 | 1.56 (≈ 2.86 µM) | 0.78 (≈ 1.43 µM)
CN1CCC(n2c(-c3ccc(C4=CCN(C(=N)N)CC4)cc3F)nnc2-c2ccc(C3=CCN(C(=N)N)CC3)cc2F)CC1 [Example 15, 4,4′-(4,4′-(4-(1-Methylpiperidin-4-yl)-4H-1,2,4-triazole-3,5-diyl)bis(3-fluoro-4,1-phenylene))bis(5,6-dihydropyridine-1(2H)-carboximidamide)] | > 100 | 25 (≈ 41.6 µM) | < 0.1 | 3.13 (≈ 5.21 µM) | 3.13 (≈ 5.21 µM) | > 100 | 0.78 (≈ 1.3 µM)
